Experimental data from patent US9434688B2, “Indole derivatives as selective androgen receptor modulators (SARMS)” (Janssen Pharmaceutica, NV, priority 2004, dated 2016).
pIC50: −log10 of the molar value.

What was measured:
[1] = target: T1, androgen receptor LBD (Panvera) (Rattus norvegicus, UniProt P15207); assay: Androgen Receptor Filtration Binding Assay (PANVERA); conditions: [3H] R1881 tracer
T1 construct: 5 pmol androgen receptor LBD (Panvera); purchased Panvera
T1 sequence (P15207 651-882 limits assumed): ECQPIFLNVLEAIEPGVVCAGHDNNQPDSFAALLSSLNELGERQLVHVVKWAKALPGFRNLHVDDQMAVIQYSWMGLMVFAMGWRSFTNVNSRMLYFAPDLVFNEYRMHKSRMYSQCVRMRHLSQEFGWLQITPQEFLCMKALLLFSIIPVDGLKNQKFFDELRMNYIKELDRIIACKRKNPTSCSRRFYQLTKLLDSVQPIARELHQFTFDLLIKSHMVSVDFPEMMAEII
Method: The assay was run on a 96 well plate with each well filled with a total reaction volume 150 μL, of a solution containing 5 pmol androgen receptor LBD (Panvera) or 30 μL of freshly prepared rat cytosol, 0.5 nM [^3H] […] (TED buffer contains 10 mM Tris.HCl pH 7.4, 1 mM sodium molybdate, 1.5 mM EDTA, 1 mM DTT and 10% (v/v) glycerol.)
On day one, the solution containing receptor, tracer and TED buffer was distributed into a 96 well plate. Diluted test compound or control vehicle was then added to individual wells and the plate incubated at 4° C. overnight.
On day two, to each well was then added 20 μL human γ-globulin (ICN 823102), prepared at 25 mg/ml in TE pH 8.0, and 55 μL 40% polyethylene glycol 8000 (JT Baker U222-08), prepared in TE pH 8.0. The plate was incubated at 4° C. for 60 minutes. During incubation, the harvester was rinsed with 10% PEG 8000, prepared in TE pH 8.0, and a GF/C Unifilter-96 was pre-wet with 10% PEG. The binding reaction was filtered, the retentate was washed three times with 10% PEG and dried under vacuum for a couple of minutes, then dried at 50° C. for 5 min and the plate was bottom sealed. Next, 25 μL of Microscint-20 (Packard) was added to the filter wells and the plate was top sealed. The plate wells were then counted on a TopCount (Packard).
Counts per well were measured and IC50s determined by linear regression.

androgen receptor = target: T2, androgen receptor (Rattus norvegicus, UniProt P15207); assay: Androgen Receptor Binding Using Rat Ventral Prostate Cytosol; parameters: from tissue; host or cells: ventral prostate cytosol of castrated male Sprague Dawley or Wistar rats; conditions: Rat Cytosol; Concentration 1000 nM
T2 sequence (P15207 1-902): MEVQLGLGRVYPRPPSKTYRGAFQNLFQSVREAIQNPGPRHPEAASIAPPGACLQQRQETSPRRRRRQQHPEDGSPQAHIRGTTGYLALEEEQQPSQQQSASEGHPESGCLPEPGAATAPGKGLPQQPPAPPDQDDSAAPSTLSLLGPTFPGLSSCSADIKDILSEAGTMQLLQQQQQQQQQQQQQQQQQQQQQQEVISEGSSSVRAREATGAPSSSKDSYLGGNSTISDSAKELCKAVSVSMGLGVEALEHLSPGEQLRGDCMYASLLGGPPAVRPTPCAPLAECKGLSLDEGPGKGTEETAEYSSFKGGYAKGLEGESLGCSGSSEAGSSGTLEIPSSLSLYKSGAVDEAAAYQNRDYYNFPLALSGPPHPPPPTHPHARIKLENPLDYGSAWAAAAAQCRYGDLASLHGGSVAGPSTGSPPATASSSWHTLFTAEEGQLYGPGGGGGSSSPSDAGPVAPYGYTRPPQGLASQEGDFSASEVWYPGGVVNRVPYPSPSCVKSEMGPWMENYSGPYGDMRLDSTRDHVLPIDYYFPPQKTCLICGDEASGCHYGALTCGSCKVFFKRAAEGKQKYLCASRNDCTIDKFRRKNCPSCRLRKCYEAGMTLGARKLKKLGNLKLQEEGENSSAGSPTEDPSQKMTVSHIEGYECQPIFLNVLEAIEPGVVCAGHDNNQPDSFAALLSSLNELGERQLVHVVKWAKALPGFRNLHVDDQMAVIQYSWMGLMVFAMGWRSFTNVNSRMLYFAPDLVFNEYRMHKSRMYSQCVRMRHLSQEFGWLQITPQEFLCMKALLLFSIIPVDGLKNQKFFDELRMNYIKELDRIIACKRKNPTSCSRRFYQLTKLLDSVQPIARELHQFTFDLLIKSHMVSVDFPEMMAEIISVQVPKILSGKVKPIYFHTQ
Method: Rat Prostate Cytosol Preparation:
Male Sprague Dawley or Wistar rats (Charles River, 200-300 g) were used for each preparation. The day before preparing the cytosol, the rats were castrated using standard surgical procedures.
The rats were euthanized by carbon dioxide asphyxiation. The rat prostates were quickly removed and placed on ice in pre-chilled, pre-weighed 50 mL plastic tubes. No more than five prostates were placed into one tube. The tubes were then weighed and the prostate tissue wet weights calculated.
To the chilled prostate tissue was then added […] of chilled homogenization buffer. The homogenization buffer was freshly prepared by mixing 10 mM Tris.HCl, pH 7.4, 1 mM sodium molybdate, 1.5 mM EDTA, 1 mM dithiothreitol, 10% (v/v) glycerol and 1% protease inhibitor cocktail (Sigma P 8340).
The prostate tissue was homogenized in a cold room using a pre-chilled Polytron PT3000 homogenizer (Brinkmann). Homogenization was performed at a speed setting of 20, three times for 10 sec bursts. The tubes containing the prostate tissue was kept on ice while homogenizing. The homogenate was allowed to rest on ice for 20 sec between bursts.
The homogenate was then placed into pre-chilled 3 mL polycarbonate ultracentrifuge tubes and centrifuged in the TLA-100 rotor of a TL-100 ultracentrifuge for 12 min at 100,000 rpm at 4° C. The resulting supernatant was stored in 1 mL aliquots at −80° C. until needed.
Binding to the androgen receptor was determined according to the protocol described in Example 86 using the above prepared rat cytosol.
% Inhibition was determined by testing dilutions of the test compound (usually duplicates of 10 μM) in the binding assay. Counts per well were measured and percents of inhibition determined. […] Counts per well were measured and IC50s determined by linear regression.

In the case of `Cc1ccc(C(=O)OCC(C)(O)c2cc3cc([N+](=O)[O-])c(C(F)(F)F)cc3[nH]2)cc1` (racemic) [compound 69], the pIC50 [1] was 5.92 and the “% Inhibition” value (androgen receptor) was 31%.
